By half-life is commonly meant the time in which the quantity being followed falls by half. As a reminder, the clearance is a measure of how efficiently the substance is removed, as volume per time. For orientation: bioavailability means the share of a dose that reaches the circulation, judged against a reference dose that is usually intravenous. Broadly, the IC50 is the concentration that inhibits the measured activity by half. Low values mean greater potency, high ones weaker potency.

The source of these data is patent US20240400547A1, “2,6-PIPERIDINEDIONE COMPOUND AND APPLICATION THEREOF” (MEDSHINE DISCOVERY INC., priority 2021, published 2024).

Data set [1] can be described thus: Pharmacokinetic evaluation in mice. In kind it is in vivo, C57BL/6N or CD-1 male mice. The settings on record: for Vd / half-life / clearance / bioavailability: male, plasma; for Vd: read-out: Apparent volume of distribution; for half-life: read-out: Elimination half-life (converted); for clearance: read-out: Plasma clearance rate; for bioavailability: po, read-out: Bioavailability F. The text has this:
In this study, C57BL/6N or CD-1 male mice were selected as test animals, and LC/MS/MS method was used to quantify plasma concentrations of the test compound intravenously injected or gavage to mice at different time points, so as to evaluate the pharmacokinetic profile of the compounds of the present disclosure in mice.
C57BL/6N mice (male, 20 to 30 g, 7 to 10 weeks old, Beijing VitalRiver) or CD-1 mice (male, 20 to 35 g, 7 to 10 weeks old, Beijing VitalRiver).
• The test compounds, either as clear or suspension solutions, were administered intravenously through the tail vein to C57BL/6N mice or CD-1 mice (either fasted overnight or fed) (vehicle: 10% DMSO/10% solutol/80% H2O or 5% DMSO/10% solutol/85% H2O), or intragastrically administered to C57BL/6N mice or CD-1 mice (either fasted overnight or fed). For intravenous injection, blood 50 μL was collected via the cheek vein puncture at 0 h (pre-administration), 0.083, 0.25, 0.5, 1, 2, 4, 6, 8, and 24 h after administration, and placed in an anticoagulant tube added with heparin sodium. The mixture was thoroughly vortexed and mixed, and centrifuged at 6000 g for 3 minutes at 2-8° C. For oral administration, blood was collected via the cheek vein puncture at 0 h (pre-administration), 0.083, 0.25, 0.5, 1, 2, 4, 6, 8, and 24 h after administration, and placed in an anticoagulant tube added with heparin sodium. The mixture was thoroughly vortexed and mixed, and centrifuged at 6000 g for 3 minutes at 2-8° C. Plasma concentrations were determined by LC-MS/MS method, and relevant pharmacokinetic parameters were calculated using Phoenix WinNonlin8.2.0 pharmacokinetic software with non-compartmental model linear-log trapezoidal method.
• The test compounds, as clear solutions, were administered intravenously through the tail vein to CD-1 mice (fasted overnight) (vehicle: 10% DMSO/10% solutol/80% H2O or 5% DMSO/10% solutol/85% H2O), or intragastrically administered to CD-1 mice (fasted overnight). For intravenous injection, blood was collected via the saphenous vein puncture at 0 h (pre-administration), 0.083, 0.25, 0.5, 1, 2, 4, 8, and 24 h after administration, and placed in a EDTA-K2 anticoagulant tube. The mixture was thoroughly vortexed and mixed, and centrifuged at 3200 g for 10 minutes at 4° C. to obtain plasma. For oral administration, blood was collected via the saphenous vein puncture at 0 h (pre-administration), 0.083, 0.25, 0.5, 1, 2, 4, 8, and 24 h after administration, and placed in a EDTA-K2 anticoagulant tube. The mixture was thoroughly vortexed and mixed, and centrifuged at 3200 g for 10 minutes at 4° C. to obtain plasma. Plasma concentrations were determined by LC-MS/MS method, and relevant pharmacokinetic parameters were calculated using Phoenix WinNonlin 6.3 pharmacokinetic software with non-compartmental model linear-log trapezoidal method.

The subject of a further data set is SU-DHL-2. Nature of the data set: Antiproliferative effect in lymphoma cell line SU-DHL-2 (CellTiter-Glo). The settings on record: SU-DHL-2, 4 days; for IC50: Homo sapiens, 96 h. The data set is classed as cell-based, human. On the procedure:
Experimental purpose: The experiment aims to evaluate the inhibitory effects of the test compounds on cell proliferation in the lymphoma cell line SU-DHL-2.
The tumor cell lines were cultured in a 37° C., 5% CO2 incubator under the above culture conditions. Regular passage, and cells in logarithmic growth phase were taken for plating.
• (1) Cells were stained with trypan blue and viable cells were counted. • (2) The cell concentration was adjusted to an appropriate concentration.
• (3) 50 μL of cell suspension per well was added to the culture plate as shown in the figure above. • (4) The culture plate was cultured overnight in a 37° C., 5% CO2 incubator with 100% relative humidity.
Compounds were added using the Echo655 instrument. The volume of compound added was 50 nL, with a final DMSO concentration of 0.1%. The culture plate was centrifuged at 1000 rpm for 1 minute, then incubated for 4 days in an incubator at 37° C., 5% CO2, and with 100% relative humidity.
The following steps were performed according to the instructions of Promega CellTiter-Glo luminescent cell viability assay kit (Promega-G7573). • (1) CellTiter-Glo buffer was melted and brought to room temperature. • (2) CellTiter-Glo substrate was brought to room temperature. • (3) CellTiter-Glo working solution was prepared by adding CellTiter-Glo buffer to a vial of CellTiter-Glo substrate to dissolve the substrate; • (4) The mixture was slowly vortexed and shaken to be fully dissolved. • (5) The cell culture plate was taken out and left for 30 minutes to equilibrate to room temperature. • (6) 25 μL of CellTiter-Glo working solution was added per well (equal to half the volume of cell culture medium per well). The cell plate was wrapped in aluminum foil to be protected from light. • (7) The culture plate was shaken on an orbital shaker for 2 minutes to induce cell lysis. • (8) The culture plate was left at room temperature for 10 minutes to stabilize the luminescent signal. • (9) The luminescent signal was detected on a 2104 EnVision plate reader.
The inhibition rate (IR) of the test compound was calculated using the following formula: IR (%)=(1−(RLU compound/RLU blank control)/(RLU vehicle control−RLU blank control)×100%. The inhibition rates of compounds at different concentrations were calculated in Excel, and then GraphPad Prism software was used to plot inhibition curves and calculate relevant parameters, including minimum inhibition rate, maximum inhibition rate, and IC50.

Where [2] appears, read: intragastric administration 10 mg/kg, experimental operation B, fasted overnight.
Setting [3] is: intravenous injection 2 mg/kg, experimental operation B, fasted overnight.
The mark [4] stands for this setting: CD-1, mouse, intravenous injection 2 mg/kg, experimental operation B, fasted overnight.
The mark [5] stands for this setting: CD-1, mouse, intragastric administration 10 mg/kg, experimental operation B, fasted overnight.
The mark [6] stands for this setting: intragastric administration 10 mg/kg, experimental operation A, fasted overnight.
Setting [7] is: mouse, intravenous injection 2 mg/kg, experimental operation A, fasted overnight.
The mark [8] stands for this setting: intragastric administration 10 mg/kg, experimental operation A, fed.

The structures appear in SMILES notation. Where a name gives a salt, the structure may show the parent alone. Read-outs that look alike come from different tables or passages of the source.

As for `CC(C)(O)c1cc2nc(C3CCC(CN4CCN(CC(=O)Nc5cccc6c5ccc5onc(C7CCC(=O)NC7=O)c56)CC4)CC3)sc2cc1NC(=O)c1cccc(C(F)(F)F)n1` (stereo not drawn) [Formate of WX017], in data set [1] (setting [2]), the “Area under drug-time curve (0-inf)” value amounted to 5.07 µM·h, the Peak concentration was 0.65 µM and the “Time to peak concentration” value was 4.00 h. The “Area under drug-time curve (0-inf)” value in data set [1] (setting [3]) amounted to 3.17 µM·h. Further, in data set [1] (setting [4]), the Vd stood at 2.59 L/kg, the half-life is 2.32 h and the clearance came out at 0.732 L/h/kg. Besides, the bioavailability in data set [1] (setting [5]) turned out to be 31.9%.

As to `O=C1CCC(c2coc3cc(NC(=O)CN4CCN(C[C@H]5CC[C@H](N6CC(NC(=O)c7coc(-c8ccnc(NCC9CC9)c8)n7)C(C(F)F)N6)CC5)CC4)ccc23)C(=O)N1` (stereo partly drawn) [Hydrochloride of WX002], in data set [1] (setting [2]), the “Area under drug-time curve (0-inf)” value came out at 2.00 µM·h, the Peak concentration was determined as 0.64 µM and the “Time to peak concentration” value was 1.00 h.

Turning to `O=C1CCC(c2coc3ccc4c(NC(=O)CN5CCN(C[C@H]6CC[C@H](n7cc(NC(=O)c8coc(-c9ccnc(NCC%10CC%10)c9)n8)c(C(F)F)n7)CC6)CC5)cccc4c23)C(=O)N1` (stereo partly drawn) [Trifluoroacetate of WX011], in data set [1] (setting [6]), the “Area under drug-time curve (0-inf)” value was found to be 5.00 µM·h, the Peak concentration is 0.45 µM and the “Time to peak concentration” value worked out at 1.67 h. Further, the “Area under drug-time curve (0-inf)” value in data set [1] (intravenous injection 2 mg/kg, experimental operation A, fasted overnight) was found to be 15.31 µM·h. Also, in data set [1] (setting [7]), the Vd was 1.8 L/kg, the half-life is 9.45 h and the clearance turned out to be 0.166 L/h/kg. For the same molecule, the bioavailability in data set [1] (mouse, intragastric administration 10 mg/kg, experimental operation A, fasted overnight) is 6.53%. In the data set on SU-DHL-2, inhibition was half-maximal at 0.0252 µM (IC50) and the Maximum inhibition rate is 99.89%.

Take `O=C1CCC(c2noc3ccc4c(NC(=O)CN5CCN(C[C@H]6CC[C@H](n7cc(NC(=O)c8coc(-c9ccnc(NCC%10CC%10)c9)n8)c(C(F)F)n7)CC6)CC5)cccc4c23)C(=O)N1` (stereo partly drawn) [Hydrochloride of WX014]: in data set [1] (setting [8]), the “Area under drug-time curve (0-inf)” value amounted to 4.47 µM·h, the Peak concentration is 0.54 µM and the “Time to peak concentration” value stood at 1.00 h. The “Area under drug-time curve (0-inf)” value in data set [1] (intravenous injection 2 mg/kg, experimental operation A, fed) is 5.40 µM·h. Also, in the data set with SU-DHL-2, the IC50 was 0.0287 µM and the Maximum inhibition rate is given as 93.55%.

Take `CC(C)(O)c1cc2nc([C@H]3CC[C@H](CN4CCN(CC(=O)Nc5ccc6c(C7CCC(=O)NC7=O)noc6c5)CC4)CC3)sc2cc1NC(=O)c1cccc(C(F)(F)F)n1` (stereo partly drawn) [Formate of WX026]: in the data set on SU-DHL-2, half-maximal inhibition (IC50) required 0.00091 µM and the Maximum inhibition rate is listed as 100.08%.

As for `O=C1CCC(c2noc3ccc4c(NC(=O)C(F)(F)C5CCN(CC6CCC(n7cc(NC(=O)c8coc(-c9ccnc(NCC%10CC%10)c9)n8)c(C(F)F)n7)CC6)CC5)cccc4c23)C(=O)N1` (stereo not drawn) [Hydrochloride of WX018], in data set [1] (setting [2]), the “Area under drug-time curve (0-inf)” value was determined as 1.01 µM·h, the Peak concentration stood at 0.09 µM and the “Time to peak concentration” value came to 6.00 h. For the same molecule, in data set [1] (setting [3]), the “Area under drug-time curve (0-inf)” value was 3.06 µM·h. For the same molecule, in data set [1] (setting [4]), the Vd came out at 4.39 L/kg, the half-life was 5.22 h and the clearance came to 0.708 L/h/kg. Further, in data set [1] (setting [5]), the bioavailability was determined as 6.59%. For the same molecule, in the data set on SU-DHL-2, the IC50 was 0.0117 µM and the Maximum inhibition rate is 100.27%.
